# Results reported in PubChem BioAssay (NCI).
#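 Growth conditions: 96-well plates. Treatment: test compound, 48 hours, 5 concentrations. Analysis: linear interpolation between bracketing concentrations; unreached endpoints set to highest concentration. Abbreviation: GI50, concentration required for 50% inhibition of growth. At the TGI there is no net growth.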
# What was measured:
# Test in all cases: NCI tumour cell line growth inhibition, 48 h
# K-562 leukemia = system: K-562 leukemia
# KM20L2 colon = system: KM20L2 colon
# DMS 114 small cell lung = system: DMS 114 small cell lung
# UACC-257 melanoma = system: UACC-257 melanoma
# COLO 205 colon = system: COLO 205 colon
# SNB-75 CNS = system: SNB-75 CNS
# HCC-2998 colon = system: HCC-2998 colon
# SF-539 CNS = system: SF-539 CNS
# HOP-62 NSCLC = system: HOP-62 NSCLC
# MDA-MB-435 = system: MDA-MB-435
SMILES,GI50 (K-562 leukemia),TGI (K-562 leukemia),GI50 (KM20L2 colon),TGI (KM20L2 colon),GI50 (DMS 114 small cell lung),TGI (DMS 114 small cell lung),GI50 (UACC-257 melanoma),TGI (UACC-257 melanoma),GI50 (COLO 205 colon),TGI (COLO 205 colon),GI50 (SNB-75 CNS),TGI (SNB-75 CNS),GI50 (HCC-2998 colon),TGI (HCC-2998 colon),GI50 (SF-539 CNS),TGI (SF-539 CNS),GI50 (HOP-62 NSCLC),TGI (HOP-62 NSCLC),GI50 (MDA-MB-435),TGI (MDA-MB-435)
CCC[CH2][Sn]([CH2]CCC)([O]C(=O)c1cccc(F)c1)[O]C(=O)c1cccc(F)c1,0.298 µM,1.81 µM,1.47 µM,2.91 µM,0.376 µM,1.63 µM,1.17 µM,2.6 µM,0.852 µM,2.18 µM,0.657 µM,1.94 µM,1.47 µM,2.81 µM,1.1 µM,2.31 µM,1.91 µM,3.38 µM,–,–
CCC(Sc1nnc2c3ccccc3n(CC)c2n1)C(=O)Nc1ccccc1OC (stereo unspecified),> 100 µM,> 100 µM,–,–,–,–,> 100 µM,> 100 µM,> 100 µM,> 100 µM,10.8 µM,> 100 µM,> 100 µM,> 100 µM,> 100 µM,> 100 µM,3.99 µM,> 71.9 µM,> 100 µM,> 100 µM
COc1cccc(/C=N\Nc2ccc([N+](=O)[O-])cn2)c1O,3.12 µM,> 100 µM,–,–,–,–,3.19 µM,20.6 µM,27.8 µM,> 100 µM,8.78 µM,57.2 µM,8.01 µM,> 100 µM,2.93 µM,8.65 µM,3.89 µM,25.5 µM,5.23 µM,> 100 µM
Cc1nn(C(=O)c2ccc(Cl)cc2)c2c1C(c1ccc([N+](=O)[O-])cc1)SC(N)=N2 (stereo unspecified),–,> 10 µM,–,–,–,–,–,> 10 µM,–,> 10 µM,–,> 10 µM,–,> 10 µM,–,> 10 µM,–,> 10 µM,–,> 10 µM
Cc1cc(NS(=O)(=O)c2ccc(NC(=O)c3cccc4c(N)c5ccccc5nc34)cc2)no1,–,> 100 µM,–,> 100 µM,–,45.6 µM,–,–,–,53.6 µM,–,> 100 µM,–,–,–,47.6 µM,–,86.9 µM,–,–
CC(=O)O[C@@H]1CO[C@H]2O[C@H]3[C@@H](C(C=O)=C[C@H](O)[C@@H]4C5=C(C(C)C)CC[C@]5(C)CC[C@@]34C)[C@@]2(O)C1=O,–,0.368 µM,–,–,–,–,–,0.629 µM,–,0.249 µM,–,1.35 µM,–,1.27 µM,–,0.37 µM,–,1.82 µM,–,0.393 µM
C=C=C(C)[Si](C)(C)C,–,> 100 µM,–,–,–,–,–,> 100 µM,–,> 100 µM,–,> 100 µM,–,> 100 µM,–,> 100 µM,–,> 100 µM,–,> 100 µM
C=C1CC(CCCl)(c2ccccc2)OC1=O (stereo unspecified),–,> 96.7 µM,–,> 100 µM,–,> 63.2 µM,–,> 75.1 µM,–,> 58 µM,–,71 µM,–,> 100 µM,–,> 62 µM,–,> 100 µM,–,–
O=c1ccccc2cccc(O)c12,–,> 100 µM,–,> 100 µM,–,> 100 µM,–,> 100 µM,–,> 100 µM,–,> 100 µM,–,> 100 µM,–,> 100 µM,–,> 100 µM,–,–
O=C(COc1cccc(/C=C2\COc3ccccc3C2=O)c1)Nc1nccs1,1.44 µM,29.2 µM,–,–,–,–,2.06 µM,5.28 µM,2.26 µM,5.24 µM,12.2 µM,24.6 µM,1.95 µM,3.48 µM,14.7 µM,31.2 µM,4.11 µM,15.9 µM,2.51 µM,7.53 µM
O=C(O)/C(=C/c1ccccc1[N+](=O)[O-])c1ccccc1,–,> 100 µM,–,> 100 µM,–,> 100 µM,–,> 100 µM,–,> 100 µM,–,> 100 µM,–,> 100 µM,–,> 100 µM,–,> 100 µM,–,–
CCN(CC)CCOc1ccc(/C=C2\CC3C4CCC5=CC(=O)CC[C@]5(C)C4CC[C@]3(C)C2=O)cc1OC (stereo partly specified),3.14 µM,> 100 µM,–,–,–,–,3.43 µM,11.1 µM,1.75 µM,4.61 µM,3.02 µM,7.78 µM,2.18 µM,5.18 µM,2.06 µM,6.13 µM,2.5 µM,6.37 µM,1.87 µM,4 µM
CCCCC(=O)N/N=C/c1cc(I)cc(I)c1O,2.99 µM,15.9 µM,–,–,–,–,2.56 µM,10.4 µM,3.59 µM,26.9 µM,6.03 µM,26.5 µM,11.1 µM,> 100 µM,2.99 µM,12.8 µM,3.67 µM,19.8 µM,5.54 µM,23.9 µM
Nc1ccc(Nc2nc(F)nc(-c3c4ccccc4c4n3CCS4)n2)cc1,–,–,–,33.5 µM,–,37.7 µM,–,–,–,41.5 µM,–,31 µM,–,44.8 µM,–,27.6 µM,–,31.3 µM,–,–
O=S1(=O)CCN(Cc2ccccn2)CC1,–,> 100 µM,–,–,–,–,–,> 100 µM,–,> 100 µM,–,> 100 µM,–,> 100 µM,–,> 100 µM,–,> 100 µM,–,> 100 µM
C(=C1c2ccccc2-c2ccccc21)c1ccccn1,3.93 µM,> 100 µM,–,–,–,–,20.1 µM,> 100 µM,8.56 µM,29.5 µM,16 µM,> 100 µM,13 µM,46.3 µM,11.7 µM,50.2 µM,6.61 µM,60.8 µM,1.72 µM,3.69 µM
CC(c1ccc(Br)cc1)C(C(=O)O)C(=O)O (stereo unspecified),–,> 100 µM,–,> 100 µM,–,> 100 µM,–,> 100 µM,–,> 100 µM,–,> 100 µM,–,> 100 µM,–,–,–,> 100 µM,–,–
Cc1ccc(NC(=O)/C(CC(=O)c2c[n+](=O)c3ccccc3n2O)=N\NC(=O)C[n+]2ccccc2)cc1,–,> 100 µM,–,> 100 µM,–,> 100 µM,–,> 100 µM,–,> 100 µM,–,> 100 µM,–,> 100 µM,–,> 100 µM,–,> 100 µM,–,–
Cc1c(C(=O)/C=C/c2ccc(Cl)cc2)[n+](=O)c2ccccc2n1[O-],–,52.9 µM,–,21.4 µM,–,15.1 µM,–,30.4 µM,–,27.1 µM,–,40.7 µM,–,24.5 µM,–,25.7 µM,–,63.5 µM,–,–
CO[C@@H]1[C@@H](OC2OC(C)C(OC3CC(C)(O)C(OC(=O)CC(C)C)C(C)O3)C(N(C)C)C2O)[C@@H](CC=O)C[C@@H](C)C(=O)/C=C/C2O[C@H]2C[C@@H](C)OC(=O)C[C@H]1OC(C)=O (stereo partly specified),–,39.8 µM,–,–,–,–,–,34 µM,–,26.2 µM,–,> 100 µM,–,32 µM,–,38.5 µM,–,37.8 µM,–,45.2 µM
